pIC50: −log10 of the molar value.
These compounds were tested against T1, IGFR kinase (Homo sapiens, UniProt P08069) (assay: Enzyme assay (c), IGFR kinase, Caliper LabChip). Settings: 30 nM IGFR kinase, 6 uM ATP, 3 uM peptide mix; read-out: IGFR IC50.
T1 construct: purchased Millipore
Type: biochemical

T1 sequence (P08069 31-1367): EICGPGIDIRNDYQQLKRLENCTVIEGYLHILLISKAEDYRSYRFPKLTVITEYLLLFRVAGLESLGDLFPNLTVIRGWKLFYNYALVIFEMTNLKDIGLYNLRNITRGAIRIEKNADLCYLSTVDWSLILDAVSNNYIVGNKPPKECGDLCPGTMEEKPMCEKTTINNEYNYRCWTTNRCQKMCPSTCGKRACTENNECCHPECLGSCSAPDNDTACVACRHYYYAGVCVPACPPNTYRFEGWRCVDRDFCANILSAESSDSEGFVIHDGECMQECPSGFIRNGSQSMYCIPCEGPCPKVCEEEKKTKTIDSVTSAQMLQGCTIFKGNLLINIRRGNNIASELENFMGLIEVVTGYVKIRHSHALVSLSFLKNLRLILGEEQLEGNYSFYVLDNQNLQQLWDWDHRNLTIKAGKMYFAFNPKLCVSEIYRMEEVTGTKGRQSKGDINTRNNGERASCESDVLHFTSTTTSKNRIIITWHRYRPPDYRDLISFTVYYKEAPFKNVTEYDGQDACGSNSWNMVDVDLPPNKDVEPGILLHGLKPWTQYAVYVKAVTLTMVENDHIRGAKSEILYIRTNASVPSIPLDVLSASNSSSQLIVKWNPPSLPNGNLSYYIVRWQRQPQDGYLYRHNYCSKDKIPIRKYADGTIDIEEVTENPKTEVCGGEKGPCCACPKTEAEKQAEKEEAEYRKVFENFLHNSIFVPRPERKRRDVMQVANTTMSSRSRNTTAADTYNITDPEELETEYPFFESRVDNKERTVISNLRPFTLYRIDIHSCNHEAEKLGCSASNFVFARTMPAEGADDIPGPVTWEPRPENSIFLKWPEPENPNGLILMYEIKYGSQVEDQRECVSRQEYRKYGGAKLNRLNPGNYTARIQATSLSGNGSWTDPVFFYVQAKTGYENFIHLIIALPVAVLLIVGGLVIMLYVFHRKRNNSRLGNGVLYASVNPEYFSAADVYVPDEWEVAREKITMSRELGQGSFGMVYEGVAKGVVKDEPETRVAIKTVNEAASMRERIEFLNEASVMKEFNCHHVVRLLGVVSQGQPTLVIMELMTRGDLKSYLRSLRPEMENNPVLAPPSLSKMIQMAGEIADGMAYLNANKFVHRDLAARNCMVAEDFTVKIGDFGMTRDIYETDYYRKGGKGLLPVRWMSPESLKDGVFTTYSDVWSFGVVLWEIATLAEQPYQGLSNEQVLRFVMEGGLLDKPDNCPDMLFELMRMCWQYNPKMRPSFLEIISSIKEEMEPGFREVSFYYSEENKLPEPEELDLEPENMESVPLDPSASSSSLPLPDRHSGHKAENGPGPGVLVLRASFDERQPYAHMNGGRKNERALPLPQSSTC

Row | pIC50 | Structure (SMILES)
1 | 7.49 | COc1cc(C2CCN(C(=O)[C@@H](C)O)CC2)ccc1Nc1ncc(C)c(-c2cnc3c(F)cccn23)n1 [Example 200, (2R)-1-[4-[4-[[4-(8-fluoroimidazo[1,2-a]pyridin-3-yl)-5-methyl-pyrimidin-2-yl]amino]-3-methoxy-phenyl]-1-piperidyl]-2-hydroxy-propan-1-one]
2 | 7.92 | COc1cc(C2CCN(C(=O)[C@H](C)O)CC2)ccc1Nc1ncc(Cl)c(-c2cnn3ccccc23)n1 [Example 139, (2S)-1-[4-[4-[(5-chloro-4-pyrazolo[1,5-a]pyridin-3-yl-pyrimidin-2-yl)amino]-3-methoxy-phenyl]-1-piperidyl]-2-hydroxy-propan-1-one]
3 | 7.92 | COc1cc(C2CCNCC2)ccc1Nc1ncc(F)c(-c2cnc3ccccn23)n1 [Example 86, 5-fluoro-4-imidazo[1,2-a]pyridin-3-yl-N-[2-methoxy-4-(4-piperidyl)phenyl]pyrimidin-2-amine]
4 | 7.66 | COc1cc(O[C@@H]2CCN(C(=O)C(C)O)C2)ccc1Nc1ncc(Cl)c(-c2cnc3ccccn23)n1 (mixture of isomers) [Example 12, 1-[(3R)-3-[4-[(5-chloro-4-imidazo[1,2-a]pyridin-3-yl-pyrimidin-2-yl)amino]-3-methoxy-phenoxy]pyrrolidin-1-yl]-2-hydroxy-propan-1-one]
5 | 7.96 | COc1cc(N2CCNC(C(=O)N(C)C)C2)ccc1Nc1ncc(Cl)c(-c2cnc3ccccn23)n1 (stereo not shown) [Example 19, 4-[4-[(5-chloro-4-imidazo[1,2-a]pyridin-3-yl-pyrimidin-2-yl)amino]-3-methoxy-phenyl]-N,N-dimethyl-piperazine-2-carboxamide]
6 | 8.05 | COc1cc(N2CCN(C(=O)N(C)CCO)CC2)ccc1Nc1ncc(Cl)c(-c2cnc3ccccn23)n1 [Example 47.1, 4-[4-[(5-chloro-4-imidazo[1,2-a]pyridin-3-yl-pyrimidin-2-yl)amino]-3-methoxy-phenyl]-N-(2-hydroxyethyl)-N-methyl-piperazine-1-carboxamide]
7 | 8.70 | COc1cc(C2CCNCC2)ccc1Nc1ncc(C)c(-c2cnn3ccccc23)n1 [Example 162, N-[2-methoxy-4-(4-piperidyl)phenyl]-5-methyl-4-pyrazolo[1,5-a]pyridin-3-yl-pyrimidin-2-amine]
8 | 7.54 | COc1cc(N2CCNCC2)ccc1Nc1ncc(Cl)c(-c2cnc3ccc(C#N)cn23)n1 [Example 266, 3-[5-chloro-2-(2-methoxy-4-piperazin-1-yl-anilino)pyrimidin-4-yl]imidazo[1,2-a]pyridine-6-carbonitrile]
9 | 6.88 | COc1cc(CC(=O)O)ccc1Nc1ncc(Cl)c(-c2cnc3ccccn23)n1 [Example 34A, 2-(4-(5-chloro-4-(imidazo[1,2-a]pyridin-3-yl)pyrimidin-2-ylamino)-3-methoxyphenyl)acetic acid]
10 | 7.68 | COc1cc(N2CCN(C(C)=O)C(CO)C2)ccc1Nc1ncc(Cl)c(-c2cnc3ccccn23)n1 (stereo not shown) [Example 3.38, 1-[4-[4-[(5-chloro-4-imidazo[1,2-a]pyridin-3-yl-pyrimidin-2-yl)amino]-3-methoxy-phenyl]-2-(hydroxymethyl)piperazin-1-yl]ethanone]
11 | 7.85 | COc1cc(N2CCN(C(=O)[C@H](C)OC)CC2)ccc1Nc1ncc(Cl)c(-c2cnc3ccccn23)n1 [Example 25.3, (2S)-1-[4-[4-[(5-chloro-4-imidazo[1,2-a]pyridin-3-yl-pyrimidin-2-yl)amino]-3-methoxy-phenyl]piperazin-1-yl]-2-methoxy-propan-1-one]
12 | 7.55 | COc1cc(N2CCN(CC(C)(C)O)CC2)ccc1Nc1ncc(C)c(-c2cnc3ccccn23)n1 [Example 106, 1-[4-[4-[(4-imidazo[1,2-a]pyridin-3-yl-5-methyl-pyrimidin-2-yl)amino]-3-methoxy-phenyl]piperazin-1-yl]-2-methyl-propan-2-ol]
13 | 7.02 | COc1cc(N2CCN(C)CC2)ccc1Nc1ncc(F)c(-c2cnc3ccccn23)n1 [Example 119, 5-fluoro-4-imidazo[1,2-a]pyridin-3-yl-N-[2-methoxy-4-(4-methylpiperazin-1-yl)phenyl]pyrimidin-2-amine]
14 | 7.85 | COc1ccc(N2CCNCC2)cc1Nc1ncc(Cl)c(-c2cnn3ccccc23)n1 [Example 147, 5-chloro-N-(2-methoxy-5-piperazin-1-yl-phenyl)-4-pyrazolo[1,5-a]pyridin-3-yl-pyrimidin-2-amine]
15 | 7.70 | COc1cc(OC2CCN(S(C)(=O)=O)CC2)ccc1Nc1ncc(Cl)c(-c2cnc3ccccn23)n1 [Example 8, 5-chloro-4-imidazo[1,2-a]pyridin-3-yl-N-[2-methoxy-4-[(1-methylsulfonyl-4-piperidyl)oxy]phenyl]pyrimidin-2-amine]
16 | 7.64 | COc1cc(N2CCN(C[C@H](O)CO)CC2)ccc1Nc1ncc(C)c(-c2cnc3ccccn23)n1 [Example 268, (2S)-3-[4-[4-[(4-imidazo[1,2-a]pyridin-3-yl-5-methyl-pyrimidin-2-yl)amino]-3-methoxy-phenyl]piperazin-1-yl]propane-1,2-diol]
17 | 8.05 | COc1cc(N2CCN(C(=O)[C@@H]3CCCN3)CC2)ccc1Nc1ncc(Cl)c(-c2cnc3ccccn23)n1 [Example 23, [4-[4-[(5-chloro-4-imidazo[1,2-a]pyridin-3-yl-pyrimidin-2-yl)amino]-3-methoxy-phenyl]piperazin-1-yl]-[(2S)-pyrrolidin-2-yl]methanone]
18 | 7.82 | COc1cc(N2CCN(C(=O)C3(O)CC3)CC2)ccc1Nc1ncc(Cl)c(-c2cnc3ccccn23)n1 [Example 22, [4-[4-[(5-chloro-4-imidazo[1,2-a]pyridin-3-yl-pyrimidin-2-yl)amino]-3-methoxy-phenyl]piperazin-1-yl]-(1-hydroxycyclopropyl)methanone]
19 | 7.82 | COc1cc(N2CCN(C)CC2)ccc1Nc1ncc(Br)c(-c2cnc3ccccn23)n1 [Example 121, 5-bromo-4-imidazo[1,2-a]pyridin-3-yl-N-[2-methoxy-4-(4-methylpiperazin-1-yl)phenyl]pyrimidin-2-amine]
20 | 7.70 | COc1cc(O[C@H]2CCN(C(C)=O)C2)ccc1Nc1ncc(Cl)c(-c2cnc3ccccn23)n1 [Example 13, 1-[(3S)-3-[4-[(5-chloro-4-imidazo[1,2-a]pyridin-3-yl-pyrimidin-2-yl)amino]-3-methoxy-phenoxy]pyrrolidin-1-yl]ethanone]
21 | 7.85 | COc1cc(C2CCN(C(C)=O)CC2)ccc1Nc1ncc(C(F)(F)F)c(-c2cnc3ccccn23)n1 [Example 108, 1-[4-[4-[[4-imidazo[1,2-a]pyridin-3-yl-5-(trifluoromethyl)pyrimidin-2-yl]amino]-3-methoxy-phenyl]-1-piperidyl]ethanone]
22 | 7.59 | CNCC(=O)N1CC2CN(c3ccc(Nc4ncc(Cl)c(-c5cnc6c(F)cccn56)n4)c(OC)c3)CC(C1)O2 [Example 208, 1-[3-[4-[[5-chloro-4-(8-fluoroimidazo[1,2-a]pyridin-3-yl)pyrimidin-2-yl]amino]-3-methoxy-phenyl]-9-oxa-3,7-diazabicyclo[3.3.1]nonan-7-yl]-2-(methylamino)ethanone]
23 | 6.87 | COc1cc(C2CCN(C(C)=O)CC2)ccc1Nc1ncc(OC)c(-c2cnc3ccccn23)n1 [Example 94, 1-[4-[4-[(4-imidazo[1,2-a]pyridin-3-yl-5-methoxy-pyrimidin-2-yl)amino]-3-methoxy-phenyl]-1-piperidyl]ethanone]
24 | 7.82 | COc1cc(N2CCN(C(C)=O)CC2)ccc1Nc1ncc(C)c(-c2cnn3ccccc23)n1 [Example 158, 1-[4-[3-methoxy-4-[(5-methyl-4-pyrazolo[1,5-a]pyridin-3-yl-pyrimidin-2-yl)amino]phenyl]piperazin-1-yl]ethanone]
25 | 7.01 | COc1cc(CC(=O)N2CCNCC2)ccc1Nc1ncc(Cl)c(-c2cnc3ccccn23)n1 [Example 34, 2-[4-[(5-chloro-4-imidazo[1,2-a]pyridin-3-yl-pyrimidin-2-yl)amino]-3-methoxy-phenyl]-1-piperazin-1-yl-ethanone]
26 | 7.02 | COc1ccc(N2CC3CNCC(C2)O3)cc1Nc1ncc(Cl)c(-c2cnn3ccccc23)n1 [Example 189, 5-chloro-N-[2-methoxy-5-(9-oxa-3,7-diazabicyclo[3.3.1]nonan-7-yl)phenyl]-4-yrazolo[1,5-a]pyridin-3-yl-pyrimidin-2-amine]
27 | 7.82 | COc1cc(N2CCN(C(=O)[C@@H](C)O)CC2)ccc1Nc1ncc(Cl)c(-c2cnc3c(F)cccn23)n1 [Example 178, (2R)-1-[4-[4-[[5-chloro-4-(8-fluoroimidazo[1,2-a]pyridin-3-yl)pyrimidin-2-yl]amino]-3-methoxy-phenyl]piperazin-1-yl]-2-hydroxy-propan-1-one]
28 | 7.17 | COc1cc(N2CCN(C(C)=O)CC2)ccc1Nc1ncc(F)c(-c2cnn3ccccc23)n1 [Example 170, 1-[4-[4-[(5-fluoro-4-pyrazolo[1,5-a]pyridin-3-yl-pyrimidin-2-yl)amino]-3-methoxy-phenyl]piperazin-1-yl]ethanone]
29 | 7.44 | COc1cc(N2CC3CN(C(=O)[C@@H](N)CO)CC(C2)O3)ccc1Nc1ncc(Cl)c(-c2cnc3c(F)cccn23)n1 [Example 210, (2S)-2-amino-1-[7-[4-[[5-chloro-4-(8-fluoroimidazo[1,2-a]pyridin-3-yl)pyrimidin-2-yl]amino]-3-methoxy-phenyl]-9-oxa-3,7-diazabicyclo[3.3.1]nonan-3-yl]-3-hydroxy-propan-1-one]
30 | 8.15 | COc1cc(N2CCN(C(=O)[C@@H](N)CC(N)=O)CC2)ccc1Nc1ncc(Cl)c(-c2cnc3ccccn23)n1 [Example 24.8, (3S)-3-amino-4-[4-[4-[(5-chloro-4-imidazo[1,2-a]pyridin-3-yl-pyrimidin-2-yl)amino]-3-methoxy-phenyl]piperazin-1-yl]-4-oxo-butanamide]

Row | Structure (SMILES) | pIC50
31 | COc1cc(CC(=O)N2CCN(CCO)CC2)ccc1Nc1ncc(Cl)c(-c2cnc3ccccn23)n1 [Example 37, 2-[4-[(5-chloro-4-imidazo[1,2-a]pyridin-3-yl-pyrimidin-2-yl)amino]-3-methoxy-phenyl]-1-[4-(2-hydroxyethyl)piperazin-1-yl]ethanone] | 7.51

— US20100105655A1, “NOVEL COMPOUNDS 515” (ASTRAZENECA AB, priority 2008, published 2010)
